Data on 22 molecules can be found in US12617752B2, “Rapidly metabolized lipid compound” (Beijing Jitai Life Sciences Ltd, priority 2023, dated 2026).

SMILES strings stand for the structures.

Data set [1] in a line: Particle size and PDI of lipid nanoparticles by dynamic light scattering. In kind it is physicochemical. To be noted: lipid nanoparticles with luciferase mRNA; ionizable lipid/cholesterol/DSPC/DMG-PEG2000 50/38.5/10/1.5 mol%. Here is the method:
(§1) Lipid nanoparticles were prepared by (1) dissolving and mixing ionizable lipid compounds, cholesterol, phospholipids and polyethylene glycolated lipids in ethanol at (molar percentages) 50%, 38.5%, 10% and 1.5%, respectively; (2) dissolving the mRNA active ingredient in 25 mM sodium acetate solution (pH=4.5); (3) using an automated high-throughput microfluidic system to mix the organic phase containing the lipid mixture and the aqueous phase containing the mRNA component in the flow ratio range of 1:1 to 1:4 at a mixing speed of 10 mL/min to 18 mL/min; (4) the prepared lipid nanoparticles (N/P ratio=6) were diluted with phosphate buffer solution and the nanoparticle solutions were ultrafiltered to the original preparation volume using ultrafiltration tubes (purchased from Millipore) with a cut-off molecular weight of 30 kDa; and (5) the obtained nanoparticles were filtered through a sterile 0.2 μm filter membrane and then stored in a sealed glass vial at low temperature.
(§2) The particle size and particle size dispersity index (PDI) of the prepared lipid nanoparticles were measured using a Zetasizer Pro (purchased from Malvern Instruments Ltd) and a DynaPro NanoStar (purchased from Wyatt) dynamic light scattering instrument. The degree of RNA encapsulation by lipid nanoparticles was characterized by the Encapsulation Efficiency %, which reflects the degree of binding of lipid nanoparticles to RNA fragments. This parameter was measured by the method of Quant-it™ RiboGreen RNA Assay (purchased from Invitrogen). Lipid nanoparticle samples were diluted in TE buffer (10 mM Tris-HCl, 1 mM EDTA, pH=7.5). A portion of the sample solution was removed, to which 0.5% Triton (Triton X-100) was added, and then allowed to stand at 37° C. for 30 minutes. Immediately after the addition of RIBOGREEN® reaction solution, the fluorescence values were read on a Varioskan LUX multifunctional microplate reader (purchased from Thermofisher) at 485 nm for absorption and 528 nm for emission to give the encapsulation efficiency values.

Data set [2] is described as follows: Encapsulation efficiency of lipid nanoparticles (Quant-it RiboGreen RNA Assay). The format is physicochemical. The note with it: lipid nanoparticles with luciferase mRNA. Here is the method:
as §1, §2

The subject of another data set is C57BL/6 mice. The data set can be described thus: In vivo delivery of luciferase mRNA lipid nanoparticles in mice (bioluminescence imaging). To be noted: intravenous, single dose 0.5 mg/kg luciferase mRNA. As for the experimental part:
The delivery effect and safety of nanoparticles encapsulated with luciferase mRNA (Trilink, L-7202) in mice were evaluated. The test mice were SPF-grade C57BL/6 mice, female, 6-8 weeks old, weighing 18-22 g, and were purchased from SPF (Beijing) Biotechnology Co., Ltd. All animals were acclimatized for more than 7 days prior to the experiment, and had free access to food and water during the experiment. The conditions include alternating light and dark for 12/12 h, the indoor temperature of 20-26° C. and the humidity of 40-70%. The mice were randomly grouped. The lipid nanoparticles encapsulated with luciferase mRNA prepared above were injected into mice by intravenous administration at a single dose of 0.5 mg/kg mRNA, and the mice were subjected to in vivo bioluminescence assay using a Small Animal In Vivo Imaging System (IVIS LUMINA III, purchased from PerkinElmer) at 6 h after administration. The assay was performed as follows: D-luciferin solution was prepared in saline at a concentration of 15 mg/mL, and each mouse was given the substrate by intraperitoneal injection. At ten minutes after administration of the substrate, the mice were anesthetized in an anesthesia chamber with isoflurane at a concentration of 2.5%. The anesthetized mice were placed in IVIS for fluorescence imaging, and data acquisition and analysis were performed on the concentrated distribution area of fluorescence.
The in vivo delivery efficiency of lipid nanoparticle carriers was expressed as the mean values of fluorescence intensity and total photon count in different animals within the same subject group, as shown in Table 5-Table 11. Higher values of fluorescence intensity and total photon count indicate higher in vivo delivery efficiency of this mRNA fragment by lipid nanoparticles. The lipid nanoparticles containing the cationic lipids of the present disclosure have good in vivo delivery efficiency.

As for `CCCCCCCCCC(=O)OCC1(CCCCCN(CCO)CCCCCCOC(=O)OCC(CCCCCCCC)CCCCCCCC)CC1` [34b], in data set [1], the “Particle size (nm)” value was determined as 85.20 nm and the “Particle-size distribution (PDI)” value turned out to be 0.19. For the same molecule, in data set [2], the “Encapsulation efficiency (%)” value was found to be 97.61%. Besides, the “Total photon count in vivo at 6 hours after administration (Total Flux)” value (shortened to “Total photon count in vivo at 6 hours”) in the data set with C57BL/6 mice is 2.78E+10.
Consider `CCCCCCCCCOC(=O)OCCCCCCN(CCO)CCCCCCC(C)(C)C(=O)OCCCC(CCCCC)CCCCC` [35a], for which, in data set [1], the “Particle size (nm)” value was 126.63 nm and the “Particle-size distribution (PDI)” value stood at 0.22. Moreover, the “Encapsulation efficiency (%)” value in data set [2] turned out to be 95.00%. Also, the “Total photon count in vivo at 6 hours” value in the data set on C57BL/6 mice stood at 3.01E+10.
Regarding `CCCCCCCCCC(=O)OCC(C)(C)CCCCCN(CCCCO)CCCCCCOC(=O)OCC(CCCCCCCC)CCCCCCCC` [35b], in data set [1], the “Particle size (nm)” value is 100.40 nm and the “Particle-size distribution (PDI)” value is reported as 0.21. For the same molecule, the “Encapsulation efficiency (%)” value in data set [2] is on record as 96.35%. In addition, the “Total photon count in vivo at 6 hours” value with C57BL/6 mice turned out to be 3.77E+10.
On to `CCCCCCCCCCCOC(=O)OCCCCN(CCO)CCCCCCC(C)(C)C(=O)OC(CCCCCCCC)CCCCCCCC` [36a], for which, in data set [1], the “Particle size (nm)” value was 104.80 nm and the “Particle-size distribution (PDI)” value was 0.15. The “Encapsulation efficiency (%)” value in data set [2] is 92.41%. Besides, the “Total photon count in vivo at 6 hours” value with C57BL/6 mice worked out at 2.51E+10.
The corresponding values for `CCCCCCCCCC(=O)OCC1(CCCCCN(CCCCO)CCCCCCOC(=O)OCC(CCCCCCCC)CCCCCCCC)CC1` [36b] are 112.50 nm, 0.19, 96.10% and 3.84E+10.
As to `CCCCCCCCCCCOC(=O)OCCCCN(CCO)CCCCCCC(C)(C)C(=O)OCC(CCCCCCC)CCCCCCC` [37a], in data set [1], the “Particle size (nm)” value was found to be 110.67 nm and the “Particle-size distribution (PDI)” value was found to be 0.15. In data set [2], the “Encapsulation efficiency (%)” value came out at 92.14%. Moreover, the “Total photon count in vivo at 6 hours” value with C57BL/6 mice was 3.54E+10.
For `CCCCCCCC(CCCCCCC)CCOC(=O)OCCCCCCN(CCO)CCCCCC(C)(C)COC(=O)CCC(CCCCCC)CCCCCC` [37b], in that order: 83.72 nm, 0.16, 95.15% and 3.72E+10.
Take `CCCCCCCCCCCOC(=O)OCCCCN(CCO)CCCCCCC(C)(C)C(=O)OCCC(CCCCCC)CCCCCC` [38a]: in data set [1], the “Particle size (nm)” value came out at 114.03 nm and the “Particle-size distribution (PDI)” value was found to be 0.13. Moreover, the “Encapsulation efficiency (%)” value in data set [2] came to 94.51%. For the same molecule, the “Total photon count in vivo at 6 hours” value in the data set on C57BL/6 mice is reported as 1.39E+10.
In the case of `CCCCCCCCCC(=O)OCC(C)(C)CCCCCN(CCCCCCCC(=O)OC(CCCCCCCC)CCCCCCCC)C(=O)SCCCCN(C)C` [38b], in data set [1], the “Particle size (nm)” value is 102.50 nm and the “Particle-size distribution (PDI)” value amounted to 0.11. Besides, the “Encapsulation efficiency (%)” value in data set [2] stood at 98.29%. In the data set on C57BL/6 mice, the “Total photon count in vivo at 6 hours” value worked out at 1.49E+10.
With `CCCCCCCCCOC(=O)OCCCCCCN(CCCCO)CCCCCCC(C)(C)C(=O)OCCCC(CCCCC)CCCCC` [39a], in data set [1], the “Particle size (nm)” value stood at 144.83 nm and the “Particle-size distribution (PDI)” value worked out at 0.08. For the same molecule, in data set [2], the “Encapsulation efficiency (%)” value is 93.59%. The “Total photon count in vivo at 6 hours” value in the data set with C57BL/6 mice stood at 2.24E+10.
Consider `CCCCCCCCCOC(=O)C(C)(C)CCCCCCN(CCO)CCCCCCOC(=O)OCC(CCCCCCC)CCCCCCC` [40a], for which, in data set [1], the “Particle size (nm)” value turned out to be 120.90 nm and the “Particle-size distribution (PDI)” value is on record as 0.18. Moreover, the “Encapsulation efficiency (%)” value in data set [2] stood at 95.08%. The “Total photon count in vivo at 6 hours” value in the data set with C57BL/6 mice came out at 2.03E+11.
Consider `CCCCCCCCCCC(=O)OCC(C)(C)CCCCCN(CCCCCCCC(=O)OC(CCCCCCCCC)CCCCCCCCC)C(=O)SCCCCN(C)C` [40b], for which, in data set [1], the “Particle size (nm)” value was determined as 97.10 nm and the “Particle-size distribution (PDI)” value was 0.11. Further, the “Encapsulation efficiency (%)” value in data set [2] turned out to be 96.74%. Also, in the data set on C57BL/6 mice, the “Total photon count in vivo at 6 hours” value was 3.70E+10.
As to `CCCCCCCCCOC(=O)C(C)(C)CCCCCCN(CCO)CCCCCCOC(=O)OCCC(CCCCCC)CCCCCC` [41a], in data set [1], the “Particle size (nm)” value worked out at 114.03 nm and the “Particle-size distribution (PDI)” value is reported as 0.13. The “Encapsulation efficiency (%)” value in data set [2] was found to be 94.51%. Further, the “Total photon count in vivo at 6 hours” value in the data set with C57BL/6 mice turned out to be 1.11E+11.
On to `CCCCCCCCCOC(=O)C(C)(C)CCCCCCN(CCO)CCCCCCOC(=O)OCCCC(CCCCC)CCCCC` [42a], for which, in data set [1], the “Particle size (nm)” value is 104.13 nm and the “Particle-size distribution (PDI)” value is 0.17. Further, the “Encapsulation efficiency (%)” value in data set [2] was 95.54%. Besides, in the data set on C57BL/6 mice, the “Total photon count in vivo at 6 hours” value turned out to be 3.47E+10.
As for `CCCCCCCCCOC(=O)C(C)(C)CCCCCCN(CCO)CCCCCCOC(=O)OCCCCC(CCCC)CCCC` [43a], in data set [1], the “Particle size (nm)” value was determined as 105.63 nm and the “Particle-size distribution (PDI)” value stood at 0.15. In addition, the “Encapsulation efficiency (%)” value in data set [2] worked out at 97.03%. The “Total photon count in vivo at 6 hours” value in the data set with C57BL/6 mice was determined as 2.23E+10.
For `CCCCCCCCCC(=O)OCC1(CCCCCN(CCCCCCCC(=O)OCC(CCCCCCC)CCCCCCC)C(=O)SCCCN(C)C)CC1` [43b], in that order: 121.89 nm, 0.08, 95.26% and 1.29E+10.
On to `CCCCCCCCCOC(=O)OCCCCCCN(CCO)CCCCC(C)(C)CCC(=O)OCC(CCCCCCC)CCCCCCC` [44a], for which, in data set [1], the “Particle size (nm)” value was 92.67 nm and the “Particle-size distribution (PDI)” value amounted to 0.20. The “Encapsulation efficiency (%)” value in data set [2] is listed as 96.84%. For the same molecule, the “Total photon count in vivo at 6 hours” value in the data set on C57BL/6 mice is 1.06E+11.
In the case of `CCCCCCCCCC(=O)OCC1(CCCCCN(CCCCCCCC(=O)OCC(CCCCCCC)CCCCCCC)C(=O)SCCCCN(C)C)CC1` [44b], in data set [1], the “Particle size (nm)” value was 92.63 nm and the “Particle-size distribution (PDI)” value is listed as 0.15. The “Encapsulation efficiency (%)” value in data set [2] is 97.45%. Further, the “Total photon count in vivo at 6 hours” value in the data set on C57BL/6 mice is 1.16E+10.
For the molecule `CCCCCCCCCOC(=O)CC(C)(C)CCCCCN(CCO)CCCCCCOC(=O)OCC(CCCCCCC)CCCCCCC` [45a], in data set [1], the “Particle size (nm)” value is 114.73 nm and the “Particle-size distribution (PDI)” value was determined as 0.15. The “Encapsulation efficiency (%)” value in data set [2] is recorded as 94.63%. Moreover, in the data set on C57BL/6 mice, the “Total photon count in vivo at 6 hours” value stood at 1.22E+11.
On to `CCCCCCCCCOC(=O)CCC(C)(C)CCCCN(CCO)CCCCCCOC(=O)OCC(CCCCCCC)CCCCCCC` [46a], for which, in data set [1], the “Particle size (nm)” value is on record as 110.83 nm and the “Particle-size distribution (PDI)” value was 0.16. Moreover, the “Encapsulation efficiency (%)” value in data set [2] amounted to 93.03%. In addition, in the data set with C57BL/6 mice, the “Total photon count in vivo at 6 hours” value was 9.06E+10.
The corresponding values for `CCCCCCCCCCC(=O)OCC(C)(C)CCCCCN(CCCCCCOC(=O)OC(CCCCCCCCC)CCCCCCCCC)C(=O)SCCCCN(C)C` [46b] are 98.91 nm, 0.09, 97.78% and 2.44E+10.
As for `CCCCCCCCCOC(=O)CCCCC(C)(C)CCN(CCO)CCCCCCOC(=O)OCC(CCCCCCC)CCCCCCC` [47a], in data set [1], the “Particle size (nm)” value is 104.47 nm and the “Particle-size distribution (PDI)” value came out at 0.21. The “Encapsulation efficiency (%)” value in data set [2] is 93.23%. Further, the “Total photon count in vivo at 6 hours” value in the data set with C57BL/6 mice was determined as 3.10E+10.
